Source: PMC12767113, “EM2, a Natural Product MST1/2 Kinase Activator, Suppresses Non‐Small Cell Lung Cancer via Hippo Pathway Activation” (Advanced Science, 2025)

Columns and labels:
MST1 [1] = molecular target: T1, MST1 (Homo sapiens, UniProt Q13043); experiment: CETSA (immunoblot), H520 and A549 cells; assay type: cell-based; parameters: gene STK4; endogenous protein in A549 and H520 cells, detected by immunoblot (antibody CST #3682); settings: 42-56 °C, 3 min; supported by DARTS (50 and 100 µM, Pronase)
T1 sequence (Q13043 1-487): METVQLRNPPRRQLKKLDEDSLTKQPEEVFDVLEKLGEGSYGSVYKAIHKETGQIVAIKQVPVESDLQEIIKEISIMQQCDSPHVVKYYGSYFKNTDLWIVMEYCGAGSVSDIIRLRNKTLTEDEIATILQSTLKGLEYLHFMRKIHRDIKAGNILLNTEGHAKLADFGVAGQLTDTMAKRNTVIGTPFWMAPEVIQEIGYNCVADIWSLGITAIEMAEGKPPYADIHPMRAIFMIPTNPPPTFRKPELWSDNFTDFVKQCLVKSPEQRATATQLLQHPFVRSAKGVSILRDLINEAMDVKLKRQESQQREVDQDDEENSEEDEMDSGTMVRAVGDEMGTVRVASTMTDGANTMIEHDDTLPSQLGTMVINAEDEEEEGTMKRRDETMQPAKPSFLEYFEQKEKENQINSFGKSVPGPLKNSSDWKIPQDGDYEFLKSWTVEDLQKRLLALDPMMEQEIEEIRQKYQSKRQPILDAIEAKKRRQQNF

MST1 [2] = molecular target: T1, MST1; experiment: isothermal titration calorimetry; assay type: binding; parameters: gene STK4; isolated MST1 protein (ITC) and "active MST1" (ADP-Glo); settings: 25 °C; 50 mM HEPES pH 7.5, 150 mM NaCl, 2 mM DTT
MST1-GFP = molecular target: T2, MST1-GFP (Homo sapiens, UniProt Q13043); experiment: microscale thermophoresis; settings: A549 cell lysate; GFP fusion as fluorophore; constant, if any, only in figure
T2 construct: gene STK4; GFP-tagged MST1 expressed from plasmid in A549 cells, RIPA lysate
T2 sequence (Q13043 1-487): T1 sequence (Q13043 1-487)
Source text: microscale thermophoresis on MST1-GFP | Microscale thermophoresis confirmed dose‐dependent binding affinity (Figure 1H)

MST1 [3] = molecular target: T1, MST1; experiment: ADP-Glo kinase assay; assay type: biochemical; parameters: gene STK4; isolated MST1 protein (ITC) and "active MST1" (ADP-Glo); settings: activator; ATP and MOB1a substrate; 25 °C, 30 min

C=C(C)C(=O)OC1CC(C)=CC2(OC)C=C(C)C(O2)C2OC(=O)C(=C)C12 (stereo not shown) [EM2]
CETSA (immunoblot), H520 and A549 cells (MST1 [1]): CETSA demonstrated that EM2 enhanced MST1 thermal stability
Kd (MST1 [2]): 1970 ± 1020 nM
Kd (MST1-GFP): 1790 ± 1690 nM
kinase activity (MST1 [3]): functions through its kinase activity, which significantly increased with EM2 concentration (Figure 1J)
